Assay results reported in patent US7943551B2, “3-cyclopropyl-4-(3-thiobenzoyl) pyrazoles and their use as herbicides” (Bayer Cropscience AG, priority 2007, dated 2011).

Tests used:
Assay type in all cases: in vivo
Amaranthus retroflexus = experiment: Pre-emergence herbicidal action
Excerpt: (§1) Seeds or rhizome pieces of mono- and dicotyledonous harmful plants are placed in sandy loam in pots of a diameter of 9 to 13 cm and covered with soil. The herbicides, formulated as emulsifiable concentrates or dusts, are applied to the surface of the covering soil in the form of aqueous dispersions or suspensions or emulsions at an application rate of 300 to 800 l of water/ha (converted), […] For further cultivation of the plants, the pots are then kept in a greenhouse under optimum conditions. The visual scoring of the damage to the harmful plants is carried out 3-4 weeks after the treatment. Here, the compounds of Nos. 1-3, 1-15, 1-44 and 1-1407 show an activity of at least 90% against Echinochloa crus galli. The compounds of Nos. 1-15, 1-45, 1-1407 and 1-1419 show an activity of at least 90% against Abutilon theophrasti. The compounds of Nos. 1-3, 1-45, 1-1406 and 1-1418 show an activity of at least 90% against Amaranthus retroflexus. The compounds of Nos. 1-44, 1-1406, 1-1407 and 1-1419 show an activity of at least 90% against Stellaria media.
(§2) The comparative tests of Tables 1 to 24 below show the superiority of the compounds according to the invention over the compounds known from the prior art.
(§3) • ABUTH Abutilon theophrasti ALOMY Alopecurus myosuroides • AMARE Amaranthus retroflexus AVEFA Avena fatua • CHEAL Chenopodium album ECHCG Echinochloa crus galli • GALAP Galium aparine LOLMU Lolium multiflorum • MATIN Matricaria inodora PHBPU Pharbitis purpureum • POLCO Fallopia convolvulus STEME Stellaria media • VERPE Veronica persica VIOTR Viola tricolor • XANST Xanthium strumarium Crop Plants • GLXMA Glycine max (soybeans) TRZAS Triticum aestivum (wheat) • ZEAMX Zea mays (corn)

Viola tricolor [1] = experiment: Pre-emergence herbicidal action; details: 320 g of a.i./ha
Excerpt: as §1, §2, §3

Abutilon theophrasti = experiment: Pre-emergence herbicidal action; details: 320 g of a.i./ha, visual scoring 3-4 weeks after treatment
Excerpt: (§4) Seeds or rhizome pieces of mono- and dicotyledonous harmful plants are placed in sandy loam in pots of a diameter of 9 to 13 cm and covered with soil. The herbicides, formulated as emulsifiable concentrates or dusts, are applied to the surface of the covering soil in the form of aqueous dispersions or suspensions or emulsions at an application rate of 300 to 800 l of water/ha (converted), at a dosage of 320 grams per hectare. For further cultivation of the plants, the pots are then kept in a greenhouse under optimum conditions. The visual scoring of the damage to the harmful plants is carried out 3-4 weeks after the treatment. Here, the compounds of Nos. 1-3, 1-15, 1-44 and 1-1407 show an activity of at least 90% against Echinochloa crus galli. The compounds of Nos. 1-15, 1-45, 1-1407 and 1-1419 show an activity of at least 90% against Abutilon theophrasti. The compounds of Nos. 1-3, 1-45, 1-1406 and 1-1418 show an activity of at least 90% against Amaranthus retroflexus. The compounds of Nos. 1-44, 1-1406, 1-1407 and 1-1419 show an activity of at least 90% against Stellaria media.
as §2, §3

Fallopia convolvulus = experiment: Pre-emergence herbicidal action; details: 320 g of a.i./ha
Excerpt: as §4, §2, §3

Matricaria inodora [2] = experiment: Pre-emergence herbicidal action; details: Tripleurospermum inodorum, read-out: Herbicidal activity in % against MATIN; for pest or weed control at 320 g/ha: 320 g of a.i./ha; for pest or weed control at 80 g/ha: 80 g of a.i./ha
Excerpt: as §4, §2, §3

Matricaria inodora [3] = experiment: Post-emergence herbicidal action; details: Tripleurospermum inodorum, 80 g of a.i./ha, read-out: Herbicidal activity in % against MATIN
Method: (§5) Seeds of mono- and dicotyledonous harmful plants are placed in sandy loam in cardboard pots, covered with soil and grown in the greenhouse under good growth conditions. Two to three weeks after sowing, the test plants are treated at the three-leaf stage. The compounds according to the invention, which are formulated as wettable powders or as emulsion concentrates, are sprayed at an application rate of 600 to 800 l of water/ha (converted) in a dosage of 80 grams per hectare onto the surface of the green plant parts. The visual scoring of the damage to the harmful plants is carried out 3-4 weeks after the treatment. Here, the compounds of Nos. 1-39, 1-40, 1-1382 and 1-2091 show an activity of at least 90% against Echinochloa crus galli. The compounds of Nos. 1-3, 1-44 and 1-2091 shown an activity of at least 90% against Abutilon theophrasti. The compounds of Nos. 1-39, 1-40 and 1-1382 show an activity of at least 90% against Veronica persica. The compounds of Nos. 1-3, 1-38, 1-39, 1-1406 and 1-1407 show an activity of at least 90% against Stellaria media.
as §2, §3

Stellaria media [4] = experiment: Post-emergence herbicidal action; details: Stellaria media, 80 g of a.i./ha, visual scoring 3-4 weeks after treatment, read-out: Herbicidal activity in % against STEME
Method: as §5, §2, §3

Veronica persica [5] = experiment: Post-emergence herbicidal action; details: 80 g of a.i./ha, visual scoring 3-4 weeks after treatment, read-out: Herbicidal activity in % against VERPE
Method: as §5, §2, §3

Xanthium strumarium = experiment: Post-emergence herbicidal action; details: 80 g of a.i./ha, read-out: Herbicidal activity in % against XANST
Method: as §5, §2, §3

Galium aparine [6] = experiment: Post-emergence herbicidal action; details: 80 g of a.i./ha
Method: as §5, with “The compounds according to the invention, which are formulated as wettable powders or as emulsion concentrates, are sprayed at an application rate of 600 to 800 l of water/ha (converted) in a dosage of 80 grams per hectare onto the surface of the green plant parts.” left out
as §2, §3

Viola tricolor [7] = experiment: Post-emergence herbicidal action; details: 80 g of a.i./ha, read-out: Herbicidal activity in % against VIOTR
Method: as §5, §2, §3

[8] = tested on: Triticum aestivum (wheat); experiment: Post-emergence damage of crop plants; details: 80 g of a.i./ha, crop plant wheat
Method: as §5, with “The compounds according to the invention, which are formulated as wettable powders or as emulsion concentrates, are sprayed at an application rate of 600 to 800 l of water/ha (converted) in a dosage of 80 grams per hectare onto the surface of the green plant parts.” left out
as §2, §3

Stellaria media [9] = experiment: Pre-emergence herbicidal action; details: 80 g of a.i./ha
Excerpt: as §1, §2, §3

Veronica persica [10] = experiment: Pre-emergence herbicidal action; details: 80 g of a.i./ha
Excerpt: as §1, §2, §3

Chenopodium album = experiment: Pre-emergence herbicidal action; details: 320 g of a.i./ha
Excerpt: as §4, §2, §3

Galium aparine [11] = experiment: Pre-emergence herbicidal action; details: 320 g of a.i./ha
Excerpt: as §4, §2, §3

Glycine max (soybeans) = experiment: Pre-emergence damage of crop plants; details: 320 g of a.i./ha, crop plant soybeans
Excerpt: as §4, §2, §3

[12] = tested on: Triticum aestivum (wheat); experiment: Pre-emergence damage of crop plants; details: 320 g of a.i./ha, crop plant wheat
Excerpt: as §4, §2, §3

[13] = 320 g of a.i./ha, visual scoring 3-4 weeks after treatment

COCCSc1c(S(C)(=O)=O)ccc(C(=O)c2c(C3CC3)nn(C)c2O)c1Cl [drawing 23]
Herbicidal activity in % against AMARE (Amaranthus retroflexus; [13]): 100%
Herbicidal activity in % against VIOTR (Viola tricolor [1]): 100%
Herbicidal activity in % against ABUTH (Abutilon theophrasti): 100%
Herbicidal activity in % against POLCO (Fallopia convolvulus): 50%
pest or weed control at 320 g/ha (Matricaria inodora [2]): 60%

Cn1nc(C2CC2)c(C(=O)c2ccc(Cl)c(S(C)(=O)=O)c2Cl)c1O [drawing 58, reference compound]
pest or weed control at 80 g/ha (Matricaria inodora [3]): 0%
pest or weed control at 80 g/ha (Stellaria media [4]): 80%
pest or weed control at 80 g/ha (Veronica persica [5]): 60%
pest or weed control at 80 g/ha (Xanthium strumarium): 70%
Herbicidal activity in % against GALAP (Galium aparine [6]): 40%

Cc1c(C(=O)c2c(C3CC3)nn(C)c2O)ccc(S(C)(=O)=O)c1[S+](C)[O-] (stereo not shown) [reference compound]
pest or weed control at 80 g/ha (Veronica persica [5]): 80%
pest or weed control at 80 g/ha (Viola tricolor [7]): 60%
Damage to TRZAS [8]: 50

COCCSc1c(Cl)ccc(C(=O)c2c(C3CC3)nn(C)c2O)c1C [drawing 17]
Herbicidal activity in % against STEME (Stellaria media [9]): 90%
Herbicidal activity in % against VERPE (Veronica persica [10]): 90%
pest or weed control at 80 g/ha (Matricaria inodora [2]): 60%

CSc1c(S(C)(=O)=O)ccc(C(=O)c2c(C3CC3)nn(C)c2O)c1Cl [drawing 26]
Herbicidal activity in % against AMARE (Amaranthus retroflexus; [13]): 90%
Herbicidal activity in % against VIOTR (Viola tricolor [1]): 50%
Herbicidal activity in % against ABUTH (Abutilon theophrasti): 60%
Herbicidal activity in % against POLCO (Fallopia convolvulus): 40%
pest or weed control at 320 g/ha (Matricaria inodora [2]): 0%

CSc1c(Cl)ccc(C(=O)c2c(C3CC3)nn(C)c2O)c1C [reference compound]
Herbicidal activity in % against AMARE (Amaranthus retroflexus; 80 g of a.i./ha): 70%
Herbicidal activity in % against STEME (Stellaria media [9]): 80%
Herbicidal activity in % against VERPE (Veronica persica [10]): 50%

CCSc1c(Cl)ccc(C(=O)c2c(C3CC3)nn(C)c2O)c1C [drawing 18, reference compound]
Herbicidal activity in % against STEME (Stellaria media [9]): 60%
Herbicidal activity in % against VERPE (Veronica persica [10]): 30%
pest or weed control at 80 g/ha (Matricaria inodora [2]): 30%

COCC[S+]([O-])c1c(S(C)(=O)=O)ccc(C(=O)c2c(C3CC3)nn(C)c2O)c1C (stereo not shown) [drawing 33]
pest or weed control at 80 g/ha (Veronica persica [5]): 100%
pest or weed control at 80 g/ha (Viola tricolor [7]): 70%
Damage to TRZAS [8]: 20

CCS(=O)(=O)c1c(S(C)(=O)=O)ccc(C(=O)c2c(C3CC3)nn(C)c2O)c1C [drawing 38, reference compound]
Herbicidal activity in % CHEAL (Chenopodium album): 90%
Herbicidal activity in % GALAP (Galium aparine [11]): 90%
Damage to GLXMA (Glycine max (soybeans)): 50
Damage to TRZAS [12]: 50
